Where “and” joins values, the source holds several entries; their conditions need not be identical. Equal entries are not always repeated. Inconclusive results and toxic doses are left out. Rule as the data show it: active = T/C of 150% or more; inactive = T/C below 125%.
Test system: L1210 leukemia ip in BDF1 mice, survival T/C
Experiment: NCI In Vivo Anticancer Drug Screen. Data for tumor model L1210 Leukemia (intraperitoneal) in B6D2F1 (BDF1) mice
Details: endpoint: mean survival time, higher = longer survival
Procedure, shortened: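 Read-out is survival time, reported as the treated-group measurement over the vehicle-control measurement.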

[1] = dose: 100.0 mg/kg/injection, schedule: Q01DX001 (ip), vehicle: saline
[2] = dose: 100.0 mg/kg/injection, schedule: Q01DX009 (ip), vehicle: saline
[3] = dose: 200.0 mg/kg/injection, schedule: Q01DX001 (ip), vehicle: saline
[4] = dose: 200.0 mg/kg/injection, schedule: Q01DX009 (ip), vehicle: saline
[5] = dose: 400.0 mg/kg/injection, schedule: Q01DX001 (ip), vehicle: saline
[6] = dose: 400.0 mg/kg/injection, schedule: Q01DX009 (ip), vehicle: saline
[7] = dose: 100.0 mg/kg/injection, schedule: Q04DX003 (ip), vehicle: saline
[8] = dose: 200.0 mg/kg/injection, schedule: Q04DX003 (ip), vehicle: saline
[9] = dose: 400.0 mg/kg/injection, schedule: Q04DX003 (ip), vehicle: saline
[10] = dose: 100.0 mg/kg/injection, schedule: Q01DX009 (ip), vehicle: Klucel (hydroxypropylcellulose) (HPC)
[11] = dose: 100.0 mg/kg/injection, schedule: Q04DX003 (ip), vehicle: Klucel (hydroxypropylcellulose) (HPC)
[12] = dose: 200.0 mg/kg/injection, schedule: Q04DX003 (ip), vehicle: Klucel (hydroxypropylcellulose) (HPC)
[13] = dose: 400.0 mg/kg/injection, schedule: Q04DX003 (ip), vehicle: Klucel (hydroxypropylcellulose) (HPC)
[14] = dose: 200.0 mg/kg/injection, schedule: Q01DX009 (ip), vehicle: Klucel (hydroxypropylcellulose) (HPC)
[15] = dose: 400.0 mg/kg/injection, schedule: Q01DX009 (ip), vehicle: Klucel (hydroxypropylcellulose) (HPC)

Measured: T/C

CC(=O)CCC1CC(=O)OC1(C)C (configuration not stated)
inactive: [1] 102 % of control and 100 % of control | [2] 104 % of control and 88 % of control | dose: 100.0 mg/kg/injection, schedule: Q04DX003 (ip), vehicle: acetone 93 % of control | [3] 102 % of control and 100 % of control | [4] 96 % of control and 88 % of control | dose: 200.0 mg/kg/injection, schedule: Q04DX003 (ip), vehicle: acetone 117 % of control | [5] 96 % of control and 106 % of control | [6] 98 % of control and 86 % of control | dose: 400.0 mg/kg/injection, schedule: Q04DX003 (ip), vehicle: acetone 101 % of control

CC1(C)Cc2nc3ccccc3nc2-c2ccccc21
inactive: [7] 95 % of control | [8] 90 % of control | [9] 100 % of control

NCCCN1CCN(CCCN)CC1
inactive: [1] 98 % of control | [2] 94 % of control and 103 % of control | [7] 97 % of control | [3] 90 % of control | [4] 94 % of control and 97 % of control | [8] 96 % of control | [5] 95 % of control | [6] 100 % of control and 88 % of control | [9] 92 % of control

O=S1(=O)CC23C=CC=CC2(CCCC3)C1Cl (configuration not stated)
inactive: dose: 25.0 mg/kg/injection, schedule: Q01DX009 (ip), vehicle: Klucel (hydroxypropylcellulose) (HPC) 94 % of control | dose: 50.0 mg/kg/injection, schedule: Q01DX009 (ip), vehicle: Klucel (hydroxypropylcellulose) (HPC) 102 % of control | [10] 94 % of control

Cn1nc(N)c2cc3c(=O)[nH]cnc3nc21
inactive: dose: 100.0 mg/kg/injection, schedule: Q01DX001 (ip), vehicle: Klucel (hydroxypropylcellulose) (HPC) 96 % of control | dose: 200.0 mg/kg/injection, schedule: Q01DX001 (ip), vehicle: Klucel (hydroxypropylcellulose) (HPC) 104 % of control | dose: 400.0 mg/kg/injection, schedule: Q01DX001 (ip), vehicle: Klucel (hydroxypropylcellulose) (HPC) 101 % of control

c1ccc(N=NC(c2ccccc2)c2ccccc2)cc1
inactive: dose: 50.0 mg/kg/injection, schedule: Q04DX003 (ip), vehicle: saline 106 % of control | [7] 95 % of control | [8] 106 % of control

NC1C2C3C=CC(C(C(=O)O)C3C(=O)O)C12 (configuration not stated)
inactive: [11] 98 % of control | [12] 102 % of control | [13] 101 % of control

Cc1cc(C)[nH]c(=S)n1
inactive: dose: 100.0 mg/kg/injection, schedule: Q04DX002 (ip), vehicle: saline 101 % of control | [7] 97 % of control | dose: 200.0 mg/kg/injection, schedule: Q04DX002 (ip), vehicle: saline 101 % of control | [8] 89 % of control | dose: 400.0 mg/kg/injection, schedule: Q04DX002 (ip), vehicle: saline 94 % of control

CNC(=O)Oc1ccc(Nc2ccccc2)cc1
inactive: [10] 97 % of control and 104 % of control | dose: 100.0 mg/kg/injection, schedule: Q04DX002 (ip), vehicle: Klucel (hydroxypropylcellulose) (HPC) 105 % of control and 88 % of control | [14] 100 % of control and 104 % of control | dose: 200.0 mg/kg/injection, schedule: Q04DX002 (ip), vehicle: Klucel (hydroxypropylcellulose) (HPC) 97 % of control and 98 % of control | [15] 95 % of control and 104 % of control | dose: 400.0 mg/kg/injection, schedule: Q04DX002 (ip), vehicle: Klucel (hydroxypropylcellulose) (HPC) 93 % of control and 108 % of control

CCN(C)CCC(C=NCC(CCN(C)CC)(CCN(C)CC)c1cccc2ccccc12)(CCN(C)CC)c1cccc2ccccc12
inactive: dose: 6.25 mg/kg/injection, schedule: Q01DX009 (ip), vehicle: saline 103 % of control | dose: 12.5 mg/kg/injection, schedule: Q01DX009 (ip), vehicle: saline 96 % of control | dose: 12.5 mg/kg/injection, schedule: Q04DX003 (ip), vehicle: saline 101 % of control | dose: 25.0 mg/kg/injection, schedule: Q01DX009 (ip), vehicle: saline 111 % of control | dose: 25.0 mg/kg/injection, schedule: Q04DX003 (ip), vehicle: saline 106 % of control

CCCCCCCCCCCC[n+]1ccc2ccccc2c1
inactive: dose: 0.05 mg/kg/injection, schedule: Q01DX001 (ip), vehicle: saline 97 % of control | dose: 0.1 mg/kg/injection, schedule: Q01DX001 (ip), vehicle: saline 105 % of control | dose: 0.2 mg/kg/injection, schedule: Q01DX001 (ip), vehicle: saline 100 % of control | dose: 0.4 mg/kg/injection, schedule: Q01DX001 (ip), vehicle: saline 102 % of control | dose: 0.5 mg/kg/injection, schedule: Q01DX001 (ip), vehicle: saline 106 % of control | dose: 0.8 mg/kg/injection, schedule: Q01DX001 (ip), vehicle: saline 100 % of control | dose: 1.0 mg/kg/injection, schedule: Q01DX001 (ip), vehicle: saline 104 % of control | dose: 2.0 mg/kg/injection, schedule: Q01DX001 (ip), vehicle: carboxymethylcellulose (CMC) 109 % of control | dose: 2.0 mg/kg/injection, schedule: Q01DX001 (ip), vehicle: saline 104 % of control | dose: 4.0 mg/kg/injection, schedule: Q01DX001 (ip), vehicle: carboxymethylcellulose (CMC) 96 % of control and 97 % of control | dose: 4.0 mg/kg/injection, schedule: Q01DX001 (ip), vehicle: saline 103 % of control | dose: 8.0 mg/kg/injection, schedule: Q01DX001 (ip), vehicle: carboxymethylcellulose (CMC) 90 % of control and 91 % of control | dose: 8.0 mg/kg/injection, schedule: Q01DX001 (ip), vehicle: saline 96 % of control | dose: 16.0 mg/kg/injection, schedule: Q01DX001 (ip), vehicle: carboxymethylcellulose (CMC) 102 % of control | dose: 8.0 micrograms/kg/injection, schedule: Q01DX015 (ip), vehicle: saline 88 % of control | dose: 16.0 micrograms/kg/injection, schedule: Q01DX015 (ip), vehicle: saline 92 % of control | dose: 32.0 micrograms/kg/injection, schedule: Q01DX015 (ip), vehicle: saline 96 % of control | dose: 64.0 micrograms/kg/injection, schedule: Q01DX015 (ip), vehicle: saline 91 % of control

NC(=O)NNC(=O)c1ccccc1
inactive: [10] 100 % of control | [11] 96 % of control | [14] 104 % of control | [12] 94 % of control | [15] 98 % of control | [13] 100 % of control

CCOC(=O)C(Cc1ccc(Cl)c(Cl)c1)(NC(C)=O)C(=O)OCC
inactive: dose: 50.0 mg/kg/injection, schedule: Q04DX003 (ip), vehicle: saline with Tween-80 102 % of control | dose: 100.0 mg/kg/injection, schedule: Q04DX003 (ip), vehicle: saline with Tween-80 94 % of control | dose: 200.0 mg/kg/injection, schedule: Q04DX003 (ip), vehicle: saline with Tween-80 96 % of control

Cc1ccc(NS(=O)(=O)c2ccccc2)cc1Cl
inactive: [10] 106 % of control | [11] 108 % of control | [14] 109 % of control | [12] 98 % of control | [15] 98 % of control | [13] 97 % of control

— PubChem BioAssay AID248 (DTP/NCI, 2004)
